Patent US7250440B2, “(Hydroxyphenyl)-1H-indole-3-carbaldehyde oxime derivatives as estrogenic agents” (Wyeth, priority 2003, dated 2007)
Like-named read-outs stand apart in the source and are kept apart here.

Tests used:
human ERβ = molecular target: T1, human ERβ (Homo sapiens, UniProt Q92731); experiment: Competition with [3H]-17β-estradiol for binding to the ERβ ligand binding domain
T1 construct: made in house; host or cells: E. coli
Method: (§1) Representative examples of the invention were evaluated for their ability to compete with 17β-estradiol for both ERα and ERβ. This test procedure provides the methodology for one to determine whether a particular compound binds to the estrogen receptor (and is therefore “estrogenic”) and whether there is selectivity for ERα or ERβ. […] 17β-estradiol is included as a standard reference for comparison. The procedure used is briefly described below. A crude lysate of E. coli expressing the estrogen receptor ligand binding domains D, E, & F) of human ERα or ERβ was prepared. Both receptors and compounds were diluted in 1× Dulbecco's PBS (DPBS) supplemented with 1 mM EDTA. Using a high binding masked microtiter plate, 100 uL of receptor (1 uG/well) was combined with 2 nM [^3H]-17β-estradiol and various concentrations of compound. After between 5 and 15 hours at room temperature, the plates were washed with DPBS/1 mM EDTA and bound radioactivity determined by liquid scintillation counting.

human ERα = molecular target: T2, human ERα (Homo sapiens, UniProt P03372); experiment: Competition with [3H]-17β-estradiol for binding to the ERα ligand binding domain; details: crude E. coli lysate expressing human ERα ligand binding domain; 2 nM [3H]-17β-estradiol; 5-15 hours at room temperature
T2 construct: made in house; host or cells: E. coli
T2 sequence (P03372 311-547 limits assumed): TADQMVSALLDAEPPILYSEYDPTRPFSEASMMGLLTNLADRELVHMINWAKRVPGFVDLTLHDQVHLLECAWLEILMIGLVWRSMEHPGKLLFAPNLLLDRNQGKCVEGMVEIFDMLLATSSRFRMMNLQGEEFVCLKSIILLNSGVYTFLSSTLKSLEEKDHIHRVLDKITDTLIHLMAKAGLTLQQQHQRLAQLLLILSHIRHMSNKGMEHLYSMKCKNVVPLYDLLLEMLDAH
Method: as §1

T1 sequence (Q92731 264-498 limits assumed): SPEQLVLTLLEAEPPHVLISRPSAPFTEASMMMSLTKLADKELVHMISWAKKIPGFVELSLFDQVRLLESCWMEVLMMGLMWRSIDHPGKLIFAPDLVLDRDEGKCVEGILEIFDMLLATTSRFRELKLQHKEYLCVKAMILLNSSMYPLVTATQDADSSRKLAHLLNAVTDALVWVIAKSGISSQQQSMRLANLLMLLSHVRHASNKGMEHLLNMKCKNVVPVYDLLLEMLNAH

SMILES	melting point [°C]	IC50 (human ERβ) [nM]	IC50 (human ERα) [nM]	IC50 (human ERβ; crude E. coli lysate expressing human ERβ ligand binding domain, 2 nM [3H]-17β-estradiol, 5-15 hours at room temperature, read-out: ERβ) [nM]
Cc1c(/C=N/O)c2ccccc2n1-c1ccc(O)cc1 [Example 4, 1-(4-Hydroxyphenyl)-2-methyl-1H-indole-3-carbaldehyde oxime]	171 to 173			
Cc1c(/C=N/O)c2cc(F)ccc2n1-c1ccc(O)cc1 [Example 5, 5-Fluoro-1-(4-hydroxyphenyl)-2-methyl-1H-indole-3-carbaldehyde oxime]	162 to 163	6.2	91	
Cc1c(/C=N/O)c2cc(Cl)ccc2n1-c1ccc(O)cc1 [Example 6, 5-Chloro-1-(4-hydroxyphenyl)-2-methyl-1H-indole-3-carbaldehyde oxime]	212 to 213	29	145	
Cc1c(/C=N/O)c2cc(Br)ccc2n1-c1ccc(O)cc1 [Example 7, 5-Bromo-1-(4-hydroxyphenyl)-2-methyl-1H-indole-3-carbaldehyde oxime]	209 to 211	93.5	235	
O/N=C1\CCCc2c1c1ccccc1n2-c1ccc(O)cc1 [Example 8, (4E)-9-(4-Hydroxyphenyl)-1,2,3,9-tetrahydro-4H-carbazol-4-one oxime]	227 to 229	10	153	
O/N=C/c1cn(-c2ccc(O)cc2)c2ccccc12 [Example 9, 1-(4-Hydroxyphenyl)-1H-indole-3-carbaldehyde oxime]	95 to 97			
Cc1c(/C=N/O)c2ccccc2n1-c1ccc(O)c(F)c1 [Example 10, 1-(3-Fluoro-4-hydroxyphenyl)-2-methyl-1H-indole-3-carbaldehyde oxime]	182 to 184			8
